Drawing on ChEMBL document CHEMBL5356969, “Functional evaluation of an electrophilic focused library to identify a covalent inhibitor against intrinsically disordered circadian clock transcription factors” (Bioorg Med Chem Lett, 2024), this text covers inhibition, K and IC50 for 19 molecules.

The nature of data set [1]: Inhibition of N-terminal (His)6/thioredoxin-tagged recombinant human BMAL1/CLOCK heterodimer expressed in Escherichia coli interaction with 5'-FAM-labeled Per2 E-box DNA (unknown origin) assessed as reduction in fluorescence intensity at 500 uM incubated for 40 mins by FP assay.
Data set [2] can be described thus: Inhibition of N-terminal (His)6/thioredoxin-tagged recombinant human BMAL1/CLOCK heterodimer expressed in Escherichia coli interaction with FAM-labeled E-box DNA (unknown origin) assessed as reduction in fluorescence intensity at 50 uM pretreated with iodoacetamide followed by compound treatment.
Data set [3] can be described thus: Inhibition of N-terminal (His)6/thioredoxin-tagged recombinant human BMAL1/CLOCK heterodimer expressed in Escherichia coli interaction with FAM-labeled E-box DNA (unknown origin) assessed as reduction in fluorescence intensity upto 1000 uM.
Data set [4] in a line: Thiol reactivity of compound assessed as second order rate constant at 200 uM in presence of TCEP by Ellman's method. The class given is ADME. On the technique in general: DTNB colorimetry detects thiols as they appear.
Data set [5] in a line: Inhibition of N-terminal (His)6/thioredoxin-tagged recombinant human BMAL1/CLOCK heterodimer expressed in Escherichia coli interaction with 5'-FAM-labeled Per2 E-box DNA (unknown origin) assessed as reduction in fluorescence intensity incubated for 40 mins by FP assay.
A short description of data set [6]: Inhibition of N-terminal (His)6/thioredoxin-tagged recombinant human BMAL1/CLOCK heterodimer expressed in Escherichia coli interaction with 5'-FAM-labeled Per2 E-box DNA (unknown origin) assessed as reduction in fluorescence intensity at 500 uM incubated for 40 mins by FP assay relative to control.

Active and inactive are the calls of the source. The calls are words filed in the database; no cut-off is given here.

The term inhibition denotes the change of the read-out against control, counted positive when it falls. Regarding `C=CC(=O)Nc1cccc2ccccc12`, the inhibition result in data set [1] is “inactive”.
As to `O=C1C=CC(=O)c2nccnc21`, the inhibition entry in data set [2] is “inactive”.
As for `O=C(CCl)NCc1ccc(Cl)cc1`, in data set [1], the inhibition entry is “inactive”.
`O=C(CCl)Nc1cccc2ccccc12`: the inhibition result in data set [1] was “inactive”.
Consider `NC(=O)CI` [IODOACETAMIDE], for which the inhibition result in data set [3] was “inactive”. Besides, the K in data set [4] is on record as 15.9 10^-5/M/s.
Consider `O=C(CCl)NC1CCCCC1`, for which the inhibition result in data set [1] is “inactive”.
Same read-out and setting: the entry for `C=CC(=O)NCc1ccccc1Cl` is “inactive”.
For `O=C(CCl)Nc1ccc(C(F)(F)F)cc1`, in data set [3], the inhibition entry is “inactive”. For the same molecule, the K in data set [4] was 4.47 10^-5/M/s.
Regarding `C=CC(=O)NC(C)C`, the inhibition result in data set [1] was “inactive”.
The term IC50 denotes the midpoint of a concentration-inhibition curve. In the case of `C=CC(=O)Nc1cc(C(F)(F)F)cc(C(F)(F)F)c1`, the IC50 in data set [5] was determined as 500 µM. Also, in data set [4], the K was 0.38 10^-5/M/s.
`O=C(CCl)Nc1ccccc1C(F)(F)F`: the K in data set [4] is reported as 0.63 10^-5/M/s.
In the case of `CC(C)NC(=O)CCl`, the inhibition result in data set [1] is “inactive”.
With `C=CC(=O)NCc1ccc(Cl)cc1`, in data set [1], the inhibition entry was “inactive”.
On the same count and under the same terms, the same measure for `C=CC(=O)NC1CCCCC1`: “inactive”.
For `O=C(CCl)Nc1cccc(C(F)(F)F)c1`, in data set [4], the K is reported as 3.18 10^-5/M/s.
On to `O=C(CCl)Nc1ccccc1`, for which the inhibition result in data set [1] was “inactive”.
As to `O=C(CCl)NCc1ccccc1Cl`, the inhibition entry in data set [1] is “inactive”.
Regarding `C=CC(=O)Nc1ccccc1`, the inhibition result in data set [1] was “inactive”.
In the case of `O=C(CCl)Nc1cc(C(F)(F)F)cc(C(F)(F)F)c1`, in data set [2], the inhibition result is “inactive”. Moreover, the inhibition result in data set [3] is “Active”. Moreover, in data set [5], the IC50 was found to be 150 µM. The K in data set [4] was 4.61 10^-5/M/s. In addition, the inhibition in data set [6] was determined as 60%.
